What was measured:
[1] = biological target: T1, ALK (Homo sapiens, UniProt Q9UM73); experiment: ALK Kinase Assay (ELISA/TRF, PLC-γ substrate); type: biochemical; details: ALK kinase inhibition, 1 μM ATP; read-out: ALK Potency
T1 construct: host or cells: baculovirus expression system
In short: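 Wells were coated with 10 μg/mL phospholipase C-γ substrate in TBS, and the reaction was started by adding 30 ng/ml ALK enzyme and run at 37° C for 15 minutes. Phosphorylated product was detected with Eu-N1-labeled PT66 antibody, and IC50 values came from sigmoidal variable-slope fits of percent inhibition against log concentration.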

[2] = biological target: T2, JAK2 (Homo sapiens, UniProt O60674); experiment: Recombinant Human JAK2 Kinase Assay (TRF); type: biochemical; details: JAK2 kinase inhibition, 0.2 μM ATP; read-out: JAK2 Potency
T2 construct: host or cells: baculovirus expression system
T2 sequence (O60674 whole entry): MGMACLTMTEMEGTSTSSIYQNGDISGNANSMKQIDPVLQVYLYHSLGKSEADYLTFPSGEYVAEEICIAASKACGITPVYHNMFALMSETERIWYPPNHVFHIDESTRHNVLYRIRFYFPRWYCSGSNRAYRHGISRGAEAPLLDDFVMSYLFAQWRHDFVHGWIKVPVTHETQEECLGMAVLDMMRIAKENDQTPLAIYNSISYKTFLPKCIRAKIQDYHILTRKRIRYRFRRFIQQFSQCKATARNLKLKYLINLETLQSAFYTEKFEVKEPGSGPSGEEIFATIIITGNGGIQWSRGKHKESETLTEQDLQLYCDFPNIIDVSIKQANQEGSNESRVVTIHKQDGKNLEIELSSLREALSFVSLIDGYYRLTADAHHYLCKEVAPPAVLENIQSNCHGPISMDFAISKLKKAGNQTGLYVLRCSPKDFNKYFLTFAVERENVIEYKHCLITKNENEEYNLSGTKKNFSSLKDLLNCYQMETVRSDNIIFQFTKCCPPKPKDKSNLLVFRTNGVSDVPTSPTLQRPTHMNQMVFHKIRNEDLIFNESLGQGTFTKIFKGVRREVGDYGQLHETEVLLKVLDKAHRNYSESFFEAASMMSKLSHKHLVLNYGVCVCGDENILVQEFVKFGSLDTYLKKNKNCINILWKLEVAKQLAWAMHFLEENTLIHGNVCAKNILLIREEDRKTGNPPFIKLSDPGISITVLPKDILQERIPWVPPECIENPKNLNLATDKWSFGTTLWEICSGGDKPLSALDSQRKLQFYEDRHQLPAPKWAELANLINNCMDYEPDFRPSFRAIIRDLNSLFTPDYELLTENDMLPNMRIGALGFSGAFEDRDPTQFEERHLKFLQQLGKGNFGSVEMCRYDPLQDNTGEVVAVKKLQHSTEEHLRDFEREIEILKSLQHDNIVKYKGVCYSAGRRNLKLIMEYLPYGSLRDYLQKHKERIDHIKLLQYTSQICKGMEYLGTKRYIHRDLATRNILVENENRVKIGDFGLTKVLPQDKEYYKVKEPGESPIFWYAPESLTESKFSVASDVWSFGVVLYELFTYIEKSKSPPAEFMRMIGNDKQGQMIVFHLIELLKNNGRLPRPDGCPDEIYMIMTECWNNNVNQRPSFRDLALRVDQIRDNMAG
In short: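 Europium-labelled PY100 antibody reported tyrosine phosphorylation of a Neutravidin-captured biotinyl 15-mer peptide by JAK2 (baculovirus-expressed, 15 ng/ml). Conditions: 20 mM HEPES pH 7.2, 0.2 μM ATP, 1 mM MnCl2, 0.1% BSA, DMSO 2.5% final, 20 min at room temperature.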

T1 sequence (Q9UM73 19-1620): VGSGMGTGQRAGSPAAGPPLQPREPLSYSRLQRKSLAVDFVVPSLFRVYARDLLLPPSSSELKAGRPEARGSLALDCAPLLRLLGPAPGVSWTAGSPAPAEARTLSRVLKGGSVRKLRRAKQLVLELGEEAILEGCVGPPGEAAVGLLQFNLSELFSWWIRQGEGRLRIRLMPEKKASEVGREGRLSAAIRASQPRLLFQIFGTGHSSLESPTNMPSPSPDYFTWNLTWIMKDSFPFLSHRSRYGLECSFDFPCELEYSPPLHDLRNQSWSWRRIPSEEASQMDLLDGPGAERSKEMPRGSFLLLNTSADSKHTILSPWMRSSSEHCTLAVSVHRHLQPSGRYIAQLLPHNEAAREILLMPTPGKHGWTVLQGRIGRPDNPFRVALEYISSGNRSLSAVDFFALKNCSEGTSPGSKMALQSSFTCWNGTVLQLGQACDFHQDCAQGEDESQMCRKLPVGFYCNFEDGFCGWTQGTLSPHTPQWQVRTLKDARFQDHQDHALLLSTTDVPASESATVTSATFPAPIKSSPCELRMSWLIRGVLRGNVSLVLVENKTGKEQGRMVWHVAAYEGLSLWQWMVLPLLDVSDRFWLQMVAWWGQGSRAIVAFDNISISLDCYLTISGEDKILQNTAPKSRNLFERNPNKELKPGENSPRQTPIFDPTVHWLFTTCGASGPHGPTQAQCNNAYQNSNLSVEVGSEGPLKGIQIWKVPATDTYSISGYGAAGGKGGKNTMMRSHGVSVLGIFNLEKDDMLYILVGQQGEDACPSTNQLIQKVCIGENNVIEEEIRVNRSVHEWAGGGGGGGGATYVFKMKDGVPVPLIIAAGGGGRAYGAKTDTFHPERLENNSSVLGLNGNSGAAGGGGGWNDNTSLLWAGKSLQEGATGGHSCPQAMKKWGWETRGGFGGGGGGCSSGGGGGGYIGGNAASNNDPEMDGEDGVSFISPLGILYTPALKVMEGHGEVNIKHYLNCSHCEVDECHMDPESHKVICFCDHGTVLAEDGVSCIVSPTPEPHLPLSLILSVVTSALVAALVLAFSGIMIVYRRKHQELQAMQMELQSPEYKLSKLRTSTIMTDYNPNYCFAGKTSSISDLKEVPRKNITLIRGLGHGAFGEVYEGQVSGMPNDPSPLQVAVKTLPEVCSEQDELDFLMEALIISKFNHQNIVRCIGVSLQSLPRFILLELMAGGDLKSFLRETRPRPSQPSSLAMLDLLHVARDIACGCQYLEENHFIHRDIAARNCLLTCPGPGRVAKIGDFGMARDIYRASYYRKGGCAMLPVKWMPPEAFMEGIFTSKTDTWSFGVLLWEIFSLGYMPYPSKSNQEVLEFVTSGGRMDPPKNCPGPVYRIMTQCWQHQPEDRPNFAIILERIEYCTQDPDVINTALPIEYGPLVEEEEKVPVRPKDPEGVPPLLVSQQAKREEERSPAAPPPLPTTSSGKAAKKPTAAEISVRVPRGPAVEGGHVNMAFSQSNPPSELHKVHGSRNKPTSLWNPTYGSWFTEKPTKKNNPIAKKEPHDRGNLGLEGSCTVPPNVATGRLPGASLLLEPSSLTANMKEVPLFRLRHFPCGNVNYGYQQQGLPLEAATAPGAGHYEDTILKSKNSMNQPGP

SMILES	IC50 [1] [nM]	IC50 [2] [nM]
CN1CCN(c2ccc(Nc3ncc4ccc(-c5ccc(CNCCS(C)(=O)=O)cc5)n4n3)cc2)CC1 [Example 1208, (7-{4-[(2-Methanesulfonyl-ethylamino)-methyl]-phenyl}-pyrrolo[2,1-f][1,2,4]triazin-2-yl)-[4-(4-methyl-piperazin-1-yl)-phenyl]-amine]	100 to 1000	< 100
CS(=O)(=O)CCNCc1cccc(-c2ccc3cnc(Nc4ccc(N5CCOCC5)cc4)nn23)c1 [Example 1209, (7-{3-[(2-Methanesulfonyl-ethylamino)-methyl]-phenyl}-pyrrolo[2,1-f][1,2,4]triazin-2-yl)-(4-morpholin-4-yl-phenyl)-amine]	100 to 1000	< 100
COc1ccncc1-c1ccc2cnc(Nc3ccc(N4CCN(C)CC4)cc3)nn12 [Example 1210, [7-(4-Methoxy-pyridin-3-yl)-pyrrolo[2,1-f][1,2,4]triazin-2-yl]-[4-(4-methyl-piperazin-1-yl)-phenyl]-amine]	100 to 1000	< 100
COc1ccncc1-c1ccc2cnc(Nc3ccc(N4CCOCC4)cc3)nn12 [Example 1211, [7-(4-Methoxy-pyridin-3-yl)-pyrrolo[2,1-f][1,2,4]triazin-2-yl]-(4-morpholin-4-yl-phenyl)-amine]	1000 to 10000	< 100
CN1CCN(CCn2cc(Nc3ncc4ccc(-c5ccccc5N(C)S(C)(=O)=O)n4n3)cn2)CC1 [Example 1212, N-Methyl-N-[2-(2-{1-[2-(4-methyl-piperazin-1-yl)-ethyl]-1H-pyrazol-4-ylamino}-pyrrolo[2,1-f][1,2,4]triazin-7-yl)-phenyl]-methanesulfonamide]	100 to 1000	< 100
CN1CCN(CCn2cc(Nc3ncc4ccc(-c5cnn(C)c5)n4n3)cn2)CC1 [Example 1213, {1-[2-(4-Methyl-piperazin-1-yl)-ethyl]-1H-pyrazol-4-yl}-[7-(1-methyl-1H-pyrazol-4-yl)-pyrrolo[2,1-f][1,2,4]triazin-2-yl]-amine]	100 to 1000	< 100
COc1ccc(-c2ccc3cnc(Nc4ccc(CN5CCN(C)CC5)cc4)nn23)cn1 [Example 1214, [7-(6-Methoxy-pyridin-3-yl)-pyrrolo[2,1-f][1,2,4]triazin-2-yl]-[4-(4-methyl-piperazin-1-ylmethyl)-phenyl]-amine]	100 to 1000	< 100
CN1CCN(c2ccc(Nc3ncc4ccc(-c5cnn(C)c5)n4n3)cc2F)CC1 [Example 1215, [3-Fluoro-4-(4-methyl-piperazin-1-yl)-phenyl]-[7-(1-methyl-1H-pyrazol-4-yl)-pyrrolo[2,1-f][1,2,4]triazin-2-yl]-amine]	100 to 1000	< 100
CN1CCN(c2ccc(Nc3ncc4ccc(-c5cnccc5NS(C)(=O)=O)n4n3)cc2)CC1 [Example 1218, N-(3-{2-[4-(4-Methyl-piperazin-1-yl)-phenylamino]-pyrrolo[2,1-f][1,2,4]triazin-7-yl}-pyridin-4-yl)-methanesulfonamide]	1000 to 10000	100 to 1000
CS(=O)(=O)Nc1ccncc1-c1ccc2cnc(Nc3ccc(N4CCOCC4)cc3)nn12 [Example 1219, N-{3-[2-(4-Morpholin-4-yl-phenylamino)-pyrrolo[2,1-f][1,2,4]triazin-7-yl]-pyridin-4-yl}-methanesulfonamide]	1000 to 10000	100 to 1000
COc1cc(CN2CCOCC2)ccc1Nc1ncc2ccc(-c3ccccc3OC)n2n1 [Example 1220, (2-Methoxy-4-morpholin-4-ylmethyl-phenyl)-[7-(2-methoxy-phenyl)-pyrrolo[2,1-f][1,2,4]triazin-2-yl]-amine]	< 100	100 to 1000
COc1cc(CN2CCOCC2)ccc1Nc1ncc2ccc(-c3ccccc3N(C)S(C)(=O)=O)n2n1 [Example 1221, N-{2-[2-(2-Methoxy-4-morpholin-4-ylmethyl-phenylamino)-pyrrolo[2,1-f][1,2,4]triazin-7-yl]-phenyl}-N-methyl-methanesulfonamide]	< 100	1000 to 10000
COc1cc(CN2CCN(C(=O)OC(C)(C)C)CC2)ccc1Nc1ncc2ccc(-c3ccccc3N(C)S(C)(=O)=O)n2n1 [Example 1222, 4-(4-{7-[2-(Methanesulfonyl-methyl-amino)-phenyl]-pyrrolo[2,1-f][1,2,4]triazin-2-ylamino}-3-methoxy-benzyl)-piperazine-1-carboxylic acid tert-butyl ester]	< 100	1000 to 10000
COc1cc(CN2CCNCC2)ccc1Nc1ncc2ccc(-c3ccccc3N(C)S(C)(=O)=O)n2n1 [Example 1223, N-{2-[2-(2-Methoxy-4-piperazin-1-ylmethyl-phenylamino)-pyrrolo[2,1-f][1,2,4]triazin-7-yl]-phenyl}-N-methyl-methanesulfonamide]	< 100	1000 to 10000
COc1cc(CN2CCN(C[C@H](C)O)CC2)ccc1Nc1ncc2ccc(-c3ccccc3N(C)S(C)(=O)=O)n2n1 [Example 1224, N-[2-(2-{4-[4-((S)-2-Hydroxy-propyl)-piperazin-1-ylmethyl]-2-methoxy-phenylamino}-pyrrolo[2,1-f][1,2,4]triazin-7-yl)-phenyl]-N-methyl-methanesulfonamide]	< 100	1000 to 10000
COC[C@H](O)CN1CCN(Cc2ccc(Nc3ncc4ccc(-c5ccccc5N(C)S(C)(=O)=O)n4n3)c(OC)c2)CC1 [Example 1225, N-[2-(2-{4-[4-((R)-2-Hydroxy-3-methoxy-propyl)-piperazin-1-ylmethyl]-2-methoxy-phenylamino}-pyrrolo[2,1-f][1,2,4]triazin-7-yl)-phenyl]-N-methyl-methanesulfonamide]	< 100	1000 to 10000
COc1cc(CN2CCN(C[C@H](C)O)CC2)ccc1Nc1ncc2ccc(-c3ccccc3OC)n2n1 [Example 1226, (S)-1-(4-{3-Methoxy-4-[7-(2-methoxy-phenyl)-pyrrolo[2,1-f][1,2,4]triazin-2-ylamino]-benzyl}-piperazin-1-yl)-propan-2-ol]	< 100	100 to 1000
COC[C@H](O)CN1CCN(Cc2ccc(Nc3ncc4ccc(-c5ccccc5OC)n4n3)c(OC)c2)CC1 [Example 1227, (R)-1-Methoxy-3-(4-{3-methoxy-4-[7-(2-methoxy-phenyl)-pyrrolo[2,1-f][1,2,4]triazin-2-ylamino]-benzyl}-piperazin-1-yl)-propan-2-ol]	< 100	100 to 1000
COc1cc(CN2CCN(C[C@@H](O)CO)CC2)ccc1Nc1ncc2ccc(-c3ccccc3N(C)S(C)(=O)=O)n2n1 [Example 1228, N-[2-(2-{4-[4-((R)-2,3-Dihydroxy-propyl)-piperazin-1-ylmethyl]-2-methoxy-phenylamino}-pyrrolo[2,1-f][1,2,4]triazin-7-yl)-phenyl]-N-methyl-methanesulfonamide]	< 100	100 to 1000
Cc1nn(C)cc1-c1ccc2cnc(Nc3ccc(N4CCN(C)CC4)cc3)nn12 [Example 1229, [7-(1,3-Dimethyl-1H-pyrazol-4-yl)-pyrrolo[2,1-f][1,2,4]triazin-2-yl]-[4-(4-methyl-piperazin-1-yl)-phenyl]-amine]	100 to 1000	< 100
COc1c(Nc2ncc3ccc(-c4ccccc4N(C)S(C)(=O)=O)n3n2)cccc1C(=O)N1CCN(C)CC1 [Example 1230, N-(2-{2-[2-Methoxy-3-(4-methyl-piperazine-1-carbonyl)-phenylamino]-pyrrolo[2,1-f][1,2,4]triazin-7-yl}-phenyl)-N-methyl-methanesulfonamide]	100 to 1000	> 10000
COc1ccccc1-c1ccc2cnc(Nc3cccc(C(=O)N4CCN(C)CC4)c3OC)nn12 [Example 1231, {2-Methoxy-3-[7-(2-methoxy-phenyl)-pyrrolo[2,1-f][1,2,4]triazin-2-ylamino]-phenyl}-(4-methyl-piperazin-1-yl)-methanone]	100 to 1000	1000 to 10000
COc1c(Nc2ncc3ccc(-c4ccccc4N(C)S(C)(=O)=O)n3n2)cccc1C(=O)N1CCN(CCO)CC1 [Example 1232, N-[2-(2-{3-[4-(2-Hydroxy-ethyl)-piperazine-1-carbonyl]-2-methoxy-phenylamino}-pyrrolo[2,1-f][1,2,4]triazin-7-yl)-phenyl]-N-methyl-methanesulfonamide]	100 to 1000	> 10000
COc1ccccc1-c1ccc2cnc(Nc3cccc(C(=O)N4CCN(CCO)CC4)c3OC)nn12 [Example 1233, [4-(2-Hydroxy-ethyl)-piperazin-1-yl]-{2-methoxy-3-[7-(2-methoxy-phenyl)-pyrrolo[2,1-f][1,2,4]triazin-2-ylamino]-phenyl}-methanone]	100 to 1000	1000 to 10000
COc1cc(CN2CCC(O)CC2)ccc1Nc1ncc2ccc(-c3ccccc3N(C)S(C)(=O)=O)n2n1 [Example 1234, N-(2-{2-[4-(4-Hydroxy-piperidin-1-ylmethyl)-2-methoxy-phenylamino]-pyrrolo[2,1-f][1,2,4]triazin-7-yl}-phenyl)-N-methyl-methanesulfonamide]	< 100	1000 to 10000
COc1cc(CN2CCC(O)CC2)ccc1Nc1ncc2ccc(-c3ccccc3OC)n2n1 [Example 1235, 1-{3-Methoxy-4-[7-(2-methoxy-phenyl)-pyrrolo[2,1-f][1,2,4]triazin-2-ylamino]-benzyl}-piperidin-4-ol]	< 100	100 to 1000
COc1cc(CN2C[C@@H](O)[C@H](O)C2)ccc1Nc1ncc2ccc(-c3ccccc3N(C)S(C)(=O)=O)n2n1 [Example 1236, N-(2-{2-[4-((3R,4R)-3,4-Dihydroxy-pyrrolidin-1-ylmethyl)-2-methoxy-phenylamino]-pyrrolo[2,1-f][1,2,4]triazin-7-yl}-phenyl)-N-methyl-methanesulfonamide]	< 100	1000 to 10000

— patent US8471005B2 (Cephalon, Inc., priority 2008, dated 2013)
